# Experimental data published in patent publication US20260265252A1, “SOLID STATE FORMS OF IMIPRIDONE DERIVATIVE” (CHIMERIX, INC., priority 2024, published 2026).
# Where a name gives a salt, the structure may show the parent alone.
# Experiment: ICH-compliant stability study of ONC206-HCl Drug Substance (appearance, XRPD form, HPLC assay, purity/impurities, water content, particle size, microbial)
# Type: physicochemical
# Design: key to Each unidentified impurity (NMT 0.5% area) / Appearance (White to off-white solid) / Polymorphic form (XRPD) (Consistent with form 2 reference diffractogram): C = Conforms; A = Absence
# Procedure: The purpose of the ICH-compliant stability study was to evaluate the performance to specifications of ONC206-HCl Drug Substance under specified container closure configuration, storage conditions, and intervals.
# The study was performed according to ICH Q1A(R2) and QlE Guidance documents. […]
# The Container Closure Systems were: • Primary container: LDPE bag, 4×8 inches (Source: Nexus—64378); bag closure PE 180 nm (Source: Entourage), • Secondary container: LDPE bag, 4×8 inches (Source: Nexus—64378); bag closure PE 180 nm (Source: Entourage), • Tertiary container: Heat-sealed foil bag, 15×30 (Source: SERCALIA S.L.—10234), and • Outer container: Plastic drum, 6 L (Source: Curtec, HDPE ref 54021) or Plastic drum, 3.6 L (Source: Curtec).
# [1] = 30 ± 2° C./65% ± 5% RH intermediate conditions, 9 months
# [2] = 30 ± 2° C./65% ± 5% RH intermediate conditions, 12 months
# [3] = 40 ± 2° C./75% ± 5% RH accelerated conditions, 0 months
# [4] = 40 ± 2° C./75% ± 5% RH accelerated conditions, 3 months
# [5] = 40 ± 2° C./75% ± 5% RH accelerated conditions, 6 months
# [6] = at all conditions, over the course of the study
smiles,measurement,setting,value
"O=C1C2=C(CCN(Cc3ccccc3)C2)N2CCN=C2N1Cc1ccc(F)cc1F [ONC206-HCl, 7-benzyl-4-(2,4-difluorobenzyl)-2,4,6,7,8,9-hexahydroimidazo[1,2-a]pyrido[3,4-e]pyrimidin-5(1H)-one]",Particle Size (Malvern) D10 (Report result μm),[1],30.5 μm
same,Particle Size (Malvern) D50 (Report result μm),[1],93.2 μm
same,Particle Size (Malvern) D90 (Report result μm),[1],197.0 μm
same,Polymorphic form (XRPD) (Consistent with form 2 reference diffractogram),[1],C
same,Purity by HPLC (NLT 98.0% area),[1],100.0 % area
same,Total impurities (NMT 2.0% area),[1],0.00 % area
same,Water Content by Kf (Report result % w/w),[1],9.3 % w/w
same,Appearance (White to off-white solid),[2],C
same,Assay by HPLC-UV (Anhydrous & Solvent Free basis) 97.0-103.0% w/w,[2],100.0 % w/w
same,Each unidentified impurity (NMT 0.5% area),[2],C
same,Particle Size (Malvern) D10 (Report result μm),[2],29.7 μm
same,Particle Size (Malvern) D50 (Report result μm),[2],93.7 μm
same,Particle Size (Malvern) D90 (Report result μm),[2],203.0 μm
same,Polymorphic form (XRPD) (Consistent with form 2 reference diffractogram),[2],C
same,Purity by HPLC (NLT 98.0% area),[2],100.0 % area
same,Total impurities (NMT 2.0% area),[2],0.00 % area
same,Water Content by Kf (Report result % w/w),[2],9.3 % w/w
same,period over which stability is confirmed,"40° C. (Table 40), 75% RH accelerated conditions",6 months
same,Appearance (White to off-white solid),[3],C
same,Assay by HPLC-UV (Anhydrous & Solvent Free basis) 97.0-103.0% w/w,[3],101.6 % w/w
same,Each unidentified impurity (NMT 0.5% area),[3],C
same,Particle Size (Malvern) D10 (Report result μm),[3],28.2 μm
same,Particle Size (Malvern) D50 (Report result μm),[3],91.4 μm
same,Particle Size (Malvern) D90 (Report result μm),[3],201.3 μm
same,Polymorphic form (XRPD) (Consistent with form 2 reference diffractogram),[3],C
same,Purity by HPLC (NLT 98.0% area),[3],100.0 % area
same,Total impurities (NMT 2.0% area),[3],0.00 % area
same,Water Content by Kf (Report result % w/w),[3],9.3 % w/w
same,Appearance (White to off-white solid),[4],C
same,Assay by HPLC-UV (Anhydrous & Solvent Free basis) 97.0-103.0% w/w,[4],100.1 % w/w
same,Each unidentified impurity (NMT 0.5% area),[4],C
same,Particle Size (Malvern) D10 (Report result μm),[4],28.1 μm
same,Particle Size (Malvern) D50 (Report result μm),[4],91.5 μm
same,Particle Size (Malvern) D90 (Report result μm),[4],199.0 μm
same,Polymorphic form (XRPD) (Consistent with form 2 reference diffractogram),[4],C
same,Purity by HPLC (NLT 98.0% area),[4],100.0 % area
same,Total impurities (NMT 2.0% area),[4],0.00 % area
same,Water Content by Kf (Report result % w/w),[4],9.5 % w/w
same,Each unidentified impurity (Report RRT and % area for peaks ≥0.10% area),"40 ± 2° C./75% ± 5% RH accelerated conditions, 3 months, peak RRT 1.30",0.10% aire
same,Appearance (White to off-white solid),[5],C
same,Assay by HPLC-UV (Anhydrous & Solvent Free basis) 97.0-103.0% w/w,[5],100.2 % w/w
same,Each unidentified impurity (NMT 0.5% area),[5],C
same,Particle Size (Malvern) D10 (Report result μm),[5],29.2 μm
same,Particle Size (Malvern) D50 (Report result μm),[5],92.6 μm
same,Particle Size (Malvern) D90 (Report result μm),[5],201.0 μm
same,Polymorphic form (XRPD) (Consistent with form 2 reference diffractogram),[5],C
same,Purity by HPLC (NLT 98.0% area),[5],100.0 % area
same,Total impurities (NMT 2.0% area),[5],0.00 % area
same,Water Content by Kf (Report result % w/w),[5],9.5 % w/w
same,"Particle Size (D10, D50 and D90)",[6],no significant evolution
same,Polymorphic form (XRPD),[6],no significant change
same,Purity and total impurities,[6],no significant evolution
same,Water Content,[6],no significant evolution
same,appearance,[6],no significant change
same,Assay HPLC,over the course of the study,no significant evolution
same,microbial results,over the course of the study,in specifications
same,period over which stability is confirmed,−20° C. (Table 41),12 months
same,Appearance (White to off-white solid),"−20° C., 0 months",C
same,Assay by HPLC-UV (Anhydrous & Solvent Free basis) 97.0-103.0% w/w,"−20° C., 0 months",101.6 % w/w
same,Each unidentified impurity (NMT 0.5% area),"−20° C., 0 months",C
same,Particle Size (Malvern) D50 (Report result μm),"−20° C., 0 months",91.4 μm
same,Particle Size (Malvern) D90 (Report result μm),"−20° C., 0 months",201.3 μm
same,Particle Size (Malvern) Dl0 (Report result μm),"−20° C., 0 months",28.2 μm
same,Polymorphic form (XRPD) (Consistent with form 2 reference diffractogram),"−20° C., 0 months",C
same,Purity by HPLC (NLT 98.0% area),"−20° C., 0 months",100.0 % area
same,Total impurities (NMT 2.0% area),"−20° C., 0 months",0.00 % area
same,Water Content by Kf (Report result % w/w),"−20° C., 0 months",9.3 % w/w
same,Appearance (White to off-white solid),"−20° C., 1 months",C
same,Assay by HPLC-UV (Anhydrous & Solvent Free basis) 97.0-103.0% w/w,"−20° C., 1 months",101.5 % w/w
same,Each unidentified impurity (NMT 0.5% area),"−20° C., 1 months",C
same,Particle Size (Malvern) D50 (Report result μm),"−20° C., 1 months",89.5 μm
same,Particle Size (Malvern) D90 (Report result μm),"−20° C., 1 months",193.0 μm
same,Particle Size (Malvern) Dl0 (Report result μm),"−20° C., 1 months",27.5 μm
same,Polymorphic form (XRPD) (Consistent with form 2 reference diffractogram),"−20° C., 1 months",C
same,Purity by HPLC (NLT 98.0% area),"−20° C., 1 months",100.0 % area
same,Total impurities (NMT 2.0% area),"−20° C., 1 months",0.00 % area
same,Water Content by Kf (Report result % w/w),"−20° C., 1 months",9.3 % w/w
same,Appearance (White to off-white solid),"−20° C., 2 months",C
same,Assay by HPLC-UV (Anhydrous & Solvent Free basis) 97.0-103.0% w/w,"−20° C., 2 months",100.2 % w/w
same,Each unidentified impurity (NMT 0.5% area),"−20° C., 2 months",C
same,Particle Size (Malvern) D50 (Report result μm),"−20° C., 2 months",90.6 μm
same,Particle Size (Malvern) D90 (Report result μm),"−20° C., 2 months",189.0 μm
same,Particle Size (Malvern) Dl0 (Report result μm),"−20° C., 2 months",28.8 μm
same,Polymorphic form (XRPD) (Consistent with form 2 reference diffractogram),"−20° C., 2 months",C
same,Purity by HPLC (NLT 98.0% area),"−20° C., 2 months",100.0 % area
same,Total impurities (NMT 2.0% area),"−20° C., 2 months",0.00 % area
same,Water Content by Kf (Report result % w/w),"−20° C., 2 months",9.4 % w/w
same,Appearance (White to off-white solid),"−20° C., 3 months",C
same,Assay by HPLC-UV (Anhydrous & Solvent Free basis) 97.0-103.0% w/w,"−20° C., 3 months",100.0 % w/w
same,Each unidentified impurity (NMT 0.5% area),"−20° C., 3 months",C
same,Particle Size (Malvern) D50 (Report result μm),"−20° C., 3 months",89.4 μm
same,Particle Size (Malvern) D90 (Report result μm),"−20° C., 3 months",195.0 μm
same,Particle Size (Malvern) Dl0 (Report result μm),"−20° C., 3 months",27.2 μm
same,Polymorphic form (XRPD) (Consistent with form 2 reference diffractogram),"−20° C., 3 months",C
same,Purity by HPLC (NLT 98.0% area),"−20° C., 3 months",100.0 % area
same,Total impurities (NMT 2.0% area),"−20° C., 3 months",0.00 % area
same,Water Content by Kf (Report result % w/w),"−20° C., 3 months",9.5 % w/w
same,Appearance (White to off-white solid),"−20° C., 6 months",C
same,Assay by HPLC-UV (Anhydrous & Solvent Free basis) 97.0-103.0% w/w,"−20° C., 6 months",100.1 % w/w
same,Each unidentified impurity (NMT 0.5% area),"−20° C., 6 months",C
same,Particle Size (Malvern) D50 (Report result μm),"−20° C., 6 months",89.0 μm
same,Particle Size (Malvern) D90 (Report result μm),"−20° C., 6 months",192.0 μm
same,Particle Size (Malvern) Dl0 (Report result μm),"−20° C., 6 months",27.5 μm
same,Polymorphic form (XRPD) (Consistent with form 2 reference diffractogram),"−20° C., 6 months",C
same,Purity by HPLC (NLT 98.0% area),"−20° C., 6 months",100.0 % area
same,Total impurities (NMT 2.0% area),"−20° C., 6 months",0.00 % area
same,Water Content by Kf (Report result % w/w),"−20° C., 6 months",9.3 % w/w
same,Appearance (White to off-white solid),"−20° C., 9 months",C
same,Assay by HPLC-UV (Anhydrous & Solvent Free basis) 97.0-103.0% w/w,"−20° C., 9 months",100.4 % w/w
same,Each unidentified impurity (NMT 0.5% area),"−20° C., 9 months",C
same,Particle Size (Malvern) D50 (Report result μm),"−20° C., 9 months",91.8 μm
same,Particle Size (Malvern) D90 (Report result μm),"−20° C., 9 months",196.0 μm
same,Particle Size (Malvern) Dl0 (Report result μm),"−20° C., 9 months",29.5 μm
same,Polymorphic form (XRPD) (Consistent with form 2 reference diffractogram),"−20° C., 9 months",C
same,Purity by HPLC (NLT 98.0% area),"−20° C., 9 months",100.0 % area
same,Total impurities (NMT 2.0% area),"−20° C., 9 months",0.00 % area
same,Water Content by Kf (Report result % w/w),"−20° C., 9 months",9.3 % w/w
same,Appearance (White to off-white solid),"−20° C., 12 months",C
same,Assay by HPLC-UV (Anhydrous & Solvent Free basis) 97.0-103.0% w/w,"−20° C., 12 months",99.9 % w/w
same,Each unidentified impurity (NMT 0.5% area),"−20° C., 12 months",C
same,Particle Size (Malvern) D50 (Report result μm),"−20° C., 12 months",92.2 μm
same,Particle Size (Malvern) D90 (Report result μm),"−20° C., 12 months",201.0 μm
same,Particle Size (Malvern) Dl0 (Report result μm),"−20° C., 12 months",28.7 μm
same,Polymorphic form (XRPD) (Consistent with form 2 reference diffractogram),"−20° C., 12 months",C
same,Purity by HPLC (NLT 98.0% area),"−20° C., 12 months",100.0 % area
same,Total impurities (NMT 2.0% area),"−20° C., 12 months",0.00 % area
same,Water Content by Kf (Report result % w/w),"−20° C., 12 months",9.2 % w/w
